{"source": "patent US20150174158A1", "about": "“[…] NITRIC OXIDE FOR TREATING RESPIRATORY DISEASES” (Advanced Inhalation Therapies (AIT) Ltd., priority 2012, published 2015)", "key": {"[1]": {"tested_on": "bovine respiratory disease", "conditions": "intermittent gNO; cited from earlier work"}, "Klebsiella sp. #3": {"tested_on": "Klebsiella sp. #3", "conditions": "200 ppm gNO; saline; cited from earlier work"}, "[2]": {"tested_on": "chronic, non-healing wound", "conditions": "topical 200 ppm gNO, within the first three days; cited from earlier work"}, "[3]": {"assay": "Phase I safety study: pulmonary function tests", "format": "in vivo, human", "experimental": "(§1) After obtaining informed consent, treatment was initiated within 5 days of enrollment. Subjects were housed in a hospital ward and received 160 ppm gNO for 30 minutes every four hours (Q4h), five times a day, for five consecutive days by inhalation. Subjects returned for follow-up evaluations 3, 7 and 21 days after the final gNO administration. Subject safety was determined by monitoring vital signs, methemoglobin levels, lung function, blood chemistry, hematology, prothrombin time, inflammatory cytokine/chemokines levels and endothelial activation. These parameters were compared to baseline and at various time-points during and after gNO administration.\nSubjects underwent full pulmonary function tests (PFT), including lung diffusing capacity (DLCO) by a trained technician utilizing a calibrated pulmonary function system (Jaeger MasterScreen, VIASYS Healthcare, USA) on screening and days 2, 8, 12 and 26. Spirometry test (Microloop by Micro Medical, England) was performed on days 1, 3 and 4. Effect of gNO on lung function and DLCO was determined by changes from baseline, treatment days and follow up days. […]"}, "E. Coli": {"tested_on": "E. Coli", "conditions": "200 ppm gNO; saline; cited from earlier work"}, "Acinetobacter sp.": {"tested_on": "Acinetobacter sp.", "conditions": "200 ppm gNO; saline; cited from earlier work"}, "[4]": {"assay": "Phase I safety study: serum nitrite/nitrate by Griess reagent", "format": "in vivo, human", "conditions": "160 ppm gNO 30 min, 5 times a day, 5 days", "experimental": "as §1\nThese parameters were measured continuously during every gNO administration course and for 3.5 hours after the first treatment of the day. Daily serum samples were collected and frozen at −80° C. and the serum […] level was measured using the Griess reagent."}, "[5]": {"conditions": "continuous delivery of 80 ppm; cited from earlier work"}, "[6]": {"tested_on": "TNF, IL-6, IL-8, IL-10, IL-1b and IL-12p70", "assay": "Phase I safety study: plasma cytokines by cytometric bead array", "format": "in vivo, human", "conditions": "vs baseline, all sampling time points", "excerpt": "Hematological assessment included a complete blood count and differentials (hemoglobin, hematocrit, red blood cell count, white blood cell count, white blood cell differential, and platelet count) were obtained in order to monitor blood chemistry, hematology and inflammation measurements. The blood chemistry profile included serum creatinine, and liver function tests such as aspartate aminotransferase (AST) serum glutamic oxaloacetic transaminase (SGOT), alkaline phosphatase, and gamma-glutamyl transferase (GGT). The effect of gNO on coagulation was determined by the prothrombin time (PT) and its derived measures of prothrombin ratio (PR) and international normalized ratio (INR). Heparinized plasma was collected at baseline and on days 1, 2, 4, and 5 of gNO administration, and on follow-up days 3, 7 and 21 and frozen at −80° C. Plasma cytokine levels were assessed using the human inflammation cytokine bead array kit (BD Bioscience, Canada). Plasma levels of angiopoietin Ang-1 and Ang-2 were determined by ELISA (R&D Systems, USA).\nTo assess whether gNO inhalation may cause inflammation or endothelial activation cytokines and the vascular endothelium activation factors Ang-1 and Ang-2 were quantified in peripheral plasma at baseline at various time points thereafter. […]"}, "Group B Streptococci": {"tested_on": "Group B Streptococci", "conditions": "200 ppm gNO; saline; cited from earlier work"}, "S. aureus (Clinical)": {"tested_on": "S. aureus (Clinical)", "conditions": "200 ppm gNO; saline; cited from earlier work"}, "[7]": {"conditions": "cited from earlier work"}, "P. aeruginosa (ATCC)": {"tested_on": "P. aeruginosa (ATCC)", "conditions": "200 ppm gNO; saline; cited from earlier work"}, "Serracia sp.": {"tested_on": "Serracia sp.", "conditions": "200 ppm gNO; saline; cited from earlier work"}}, "data": [{"compound": "[N]=O", "note": "[gNO, nitric oxide]", "values": [{"measurement": "clinical symptoms of bovine respiratory disease", "setting": "[1]", "value": "decrease the clinical symptoms"}, {"measurement": "LD100", "setting": "Klebsiella sp. #3", "value": 6, "unit": "h"}, {"measurement": "Latent Period", "setting": "Klebsiella sp. #3", "value": 3, "unit": "h"}, {"measurement": "−2.5 Log10", "setting": "Klebsiella sp. #3", "value": 5.1, "unit": "hours"}, {"measurement": "biofilm presence", "setting": "[2]", "value": "no longer visibly present"}, {"measurement": "pulmonary function tests, abnormalities", "setting": "[3]; during and after gNO administration", "value": "did not reveal any abnormalities"}, {"measurement": "DLCO, FVC, TLC and RV", "setting": "[3]; vs baseline", "value": "did not change from baseline"}, {"measurement": "FEV1 and maximum mid-expiratory flow (MMEF)", "setting": "[3]; vs baseline during the course of the study", "value": "did not differ from baseline"}, {"measurement": "LD100", "setting": "E. Coli", "value": 5, "unit": "h"}, {"measurement": "Latent Period", "setting": "E. Coli", "value": 3, "unit": "h"}, {"measurement": "−2.5 Log10", "setting": "E. Coli", "value": 4.2, "unit": "hours"}, {"measurement": "LD100", "setting": "Acinetobacter sp.", "value": 6, "unit": "h"}, {"measurement": "Latent Period", "setting": "Acinetobacter sp.", "value": 4, "unit": "h"}, {"measurement": "−2.5 Log10", "setting": "Acinetobacter sp.", "value": 5, "unit": "hours"}, {"measurement": "serum nitrite/nitrate levels vs baseline", "setting": "[4]", "value": "no significant differences"}, {"measurement": "NO2 level", "setting": "[5]", "value": 2.6, "unit": "ppm"}, {"measurement": "plasma cytokine levels", "setting": "[6]", "value": "unaffected"}, {"measurement": "LD100", "setting": "Group B Streptococci", "value": 2, "unit": "h"}, {"measurement": "Latent Period", "setting": "Group B Streptococci", "value": 1, "unit": "h"}, {"measurement": "−2.5 Log10", "setting": "Group B Streptococci", "value": 1.5, "unit": "hours"}, {"measurement": "LD100", "setting": "S. aureus (Clinical)", "value": 4, "unit": "h"}, {"measurement": "Latent Period", "setting": "S. aureus (Clinical)", "value": 3, "unit": "h"}, {"measurement": "−2.5 Log10", "setting": "S. aureus (Clinical)", "value": 3.7, "unit": "hours"}, {"measurement": "radius of action from site of origin", "setting": "[7]; in vivo", "value": "approximately 200 microns"}, {"measurement": "nitrate excreted in the urine, share of nitric oxide dose inhaled", "setting": "[7]; predominant metabolite", "value": "more than 70%"}, {"measurement": "LD100", "setting": "P. aeruginosa (ATCC)", "value": 3, "unit": "h"}, {"measurement": "Latent Period", "setting": "P. aeruginosa (ATCC)", "value": 1, "unit": "h"}, {"measurement": "−2.5 Log10", "setting": "P. aeruginosa (ATCC)", "value": 2.1, "unit": "hours"}, {"measurement": "LD100", "setting": "Serracia sp.", "value": 6, "unit": "h"}, {"measurement": "Latent Period", "setting": "Serracia sp.", "value": 4, "unit": "h"}, {"measurement": "−2.5 Log10", "setting": "Serracia sp.", "value": 4.9, "unit": "hours"}]}]}
